Values of other authors in publication PMC11910062 (Drug Design, Development and Therapy, 2025).

Columns and labels:
[1] = ref submission materials for new drug application
[2] = CLEAR Outcomes study

CC(C)(CCCCCC(O)CCCCCC(C)(C)C(=O)O)C(=O)O [Nexletol, bempedoic acid]
Cmax ([1]; 180 mg dose of Nexletol): 19.95 µg/mL | LDL-C reduction ([1]; 180 mg of Nexletol): 26% | 4 major adverse cardiovascular events (4-MACE) reduction compared with placebo group [2]: −13%
